From article PMC8844822, “SARM1 is a multi-functional NAD(P)ase with prominent base exchange activity, all regulated bymultiple physiologically relevant NAD metabolites” (iScience, 2022) come the findings set out here.

One assay addresses T1, hSARM1 SAM-TIR (Homo sapiens, UniProt Q6SZW1).
T1 construct: made in house
T1 sequence (Q6SZW1 409-724): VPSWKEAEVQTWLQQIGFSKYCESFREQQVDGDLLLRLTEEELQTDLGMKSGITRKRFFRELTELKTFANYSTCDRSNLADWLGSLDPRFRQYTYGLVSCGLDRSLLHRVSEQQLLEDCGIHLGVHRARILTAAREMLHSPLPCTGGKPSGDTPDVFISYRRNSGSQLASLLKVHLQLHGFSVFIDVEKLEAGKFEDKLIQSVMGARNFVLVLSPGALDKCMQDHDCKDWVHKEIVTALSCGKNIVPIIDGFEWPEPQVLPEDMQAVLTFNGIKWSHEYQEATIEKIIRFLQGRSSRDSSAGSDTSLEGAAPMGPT
The assay is described as follows: Base exchange reactions at neutral pH (HPLC). The format is biochemical. As for the experimental part: (§1) Multiple time stops from individual assays as above were analyzed for linearity, then extents of hydrolysis (white bars), cyclization (red bars), or base exchange (black bars) were calculated from each corresponding product as shown in Figure 1B and STAR methods. […] See also Figures S3–S5, and Table S1
(§2) Rates were calculated as follows.

Assay [1] concerns the target T2, Aplysia californica ADP ribosyl cyclase (Aplysia californica, UniProt P29241).
T2 sequence (P29241 25-282): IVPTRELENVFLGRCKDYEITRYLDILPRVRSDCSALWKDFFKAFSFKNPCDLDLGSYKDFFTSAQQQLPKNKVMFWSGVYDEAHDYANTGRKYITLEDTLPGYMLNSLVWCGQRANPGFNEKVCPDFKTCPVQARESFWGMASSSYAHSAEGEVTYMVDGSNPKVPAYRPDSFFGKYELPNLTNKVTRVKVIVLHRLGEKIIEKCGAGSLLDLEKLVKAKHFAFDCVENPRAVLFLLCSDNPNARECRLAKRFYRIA
As to the kind of experiment: Base exchange reactions at neutral pH (HPLC). The class given is biochemical. Also noted: purchased Merck A8950. As for the experimental part:
as §1, §2

Where [2] appears, read: NAD […] alone or + AcPyr 2 mM / Vacor 0.5 mM / Na 2 mM.
Setting [3] is: NADP […] alone or + AcPyr 2 mM / Vacor 0.5 mM / Na 2 mM.

As for `O=C(NCc1cccnc1)Nc1ccc([N+](=O)[O-])cc1` [Vacor, 1-(4-nitrophenyl)-3-(pyridin-3-ylmethyl)urea], the rate came to 284.8 ±51.1 mU/mg on hSARM1 SAM-TIR (setting [2]), 266.0 ±54.1 mU/mg on hSARM1 SAM-TIR (setting [3]), 12748 ±2593 mU/mg in assay [1] (setting [2]) and 8132 ±2201 mU/mg in assay [1] (setting [3]).
In the same order, the values of `CC(=O)c1cccnc1` [AcPyr, 3-acetylpyridine] are 427.3 ±76.5 mU/mg, 261.7 ±60.9 mU/mg, 13996 ±624 mU/mg and 15779 ±5215 mU/mg.
